Data taken from PMC8066102, “Metabolic Profiles of New Unsymmetrical Bisacridine Antitumor Agents in Electrochemical and Enzymatic Noncellular Systems and in Tumor Cells” (Pharmaceuticals, 2021).
Like-named read-outs stand apart in the source and are kept apart here.

Columns and labels:
[1] = pKa determination by spectrophotometric titration; type: physicochemical; conditions: 23 aqueous buffer solutions, pH 1.5-11, pH 1.5, 0.02 mM compound, pH 1.5-11, UV-vis, principal component analysis
Method: The concentration of the compounds in the working solutions was 0.02 mM, pH was changed in the range 1.5–11 at 23 buffer solutions: 1.5–3.5 (interval 0.5 unit—HCl solution), 4.0–5.5 (interval 0.5 unit—acetic buffer), 6.1–7.5 (interval 0.2 unit—PIPES (2-[4-(2-sulphoethyl)piperazine-1-ethanesulphonic acid) buffer), 7.7–8.1 (interval 0.2 unit—HEPES (4-(2-hydroxyethyl)piperazine-1-ethanesulphonic acid) buffer) and 9–11 (interval 1 unit—borate buffer).
PKa values for tested UAs were determined by spectrophotometric titration using a Cary 300 Bio instrument. The UV-vis spectra obtained for all solutions in the examined pH range were subjected to the chemometric technique principal component analysis. This procedure makes it possible to determine the number of spectral forms present in the tested samples and to estimate the mole fractions for each of them. To determine pKa values the relationships between the mole fractions of individual spectral forms and the pH of the samples were used. The first approximation of pKa values have been assigned to the values of pH corresponding to the central points of each titration wave. Numerical optimization by the adjustment of pKa values to the obtained molar fractions allowed to refine these values and the cross-validation procedure let to determine their standard deviations.

[2] = system: rat liver microsomes, P450-RLMs Dex-induced; test: Metabolism with rat liver microsomes (Dex-induced P450-RLMs); type: in vitro ADME; conditions: 0.05 mM compound, 2 mM NADPH; for conversion rate: 2 mg/mL Dex-induced P450-RLMs, 30 min; for substrate consumption: Dex-induced P450-RLMs, 10 min
Method: The initial studies on drug metabolism of new UAs were performed with rat liver microsomes under the optimal conditions. HEPES buffer (0.1 M) at pH 7.4 with 2 mM NADPH and 0.05 mM UAs (C-2028 and C-2045) were selected.
UT-RLMs (2 mg/mL) and P450-RLMs induced with Dex, 3MC, or PB and recombinant P4502C19 and P4503A4 (1 mg/mL) were assayed for activity toward tested UAs as follows. The proteins were incubated in a buffer containing 0.1 M HEPES (pH 7.4), 2 mM MgCl2 with 0.05 mM substrate in total volume 70 µL. Substrates were added also in buffer HEPES, pH 7.4. Reactions were started by the addition of NADPH (2 mM) and were incubated for specified time at 37 °C. The reactions were stopped by the addition of 8.75 µL of 1 M HCl, followed by centrifugation at 13,400 rpm for 10 min to pellet the denatured protein. The supernatant fractions were used for high-performance liquid chromatography (HPLC) analysis. Control reactions omitting substrate were run with each assay. All incubations were performed in two repetitions.

[3] = target: T1, UGT2B15 (Homo sapiens, UniProt P54855); test: Glucuronidation with recombinant UGT2B15; type: in vitro ADME; design: key: −: the lack of UGT activity; +: the significant UGT activity; conditions: 0.05 mM compound, 1 mg/mL UGT, 5 mM UDPGA
T1 construct: purchased Corning, NY, USA (through DIAG-MED, Poland); host or cells: baculovirus-insect cells (Supersomes)
T1 sequence (P54855 24-530): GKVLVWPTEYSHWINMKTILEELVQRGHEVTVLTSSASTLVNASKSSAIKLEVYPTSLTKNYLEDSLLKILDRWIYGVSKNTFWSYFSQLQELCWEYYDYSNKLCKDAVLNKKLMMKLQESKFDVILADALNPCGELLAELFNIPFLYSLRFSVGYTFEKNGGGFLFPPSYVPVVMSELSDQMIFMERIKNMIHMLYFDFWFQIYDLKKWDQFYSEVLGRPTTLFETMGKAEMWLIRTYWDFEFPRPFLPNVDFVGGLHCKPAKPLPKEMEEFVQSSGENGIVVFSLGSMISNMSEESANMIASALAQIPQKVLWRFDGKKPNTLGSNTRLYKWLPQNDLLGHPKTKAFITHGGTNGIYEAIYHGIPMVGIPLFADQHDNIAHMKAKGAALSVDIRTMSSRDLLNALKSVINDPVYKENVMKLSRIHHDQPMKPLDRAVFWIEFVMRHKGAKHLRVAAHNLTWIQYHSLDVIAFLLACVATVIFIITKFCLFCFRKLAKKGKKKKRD
Method: (§1) Recombinant UGT isoform protein (1 mg/mL) was assayed for activity toward tested UAs as follows. The proteins were incubated in a buffer containing 0.1 M HEPES (pH 7.4), 8 mM MgCl2 and alamethicin (25 μg/mL) with either 0.05 mM substrate in total volume 70 µL (alamethicin was added to permeabilize the membrane). Substrates were also in buffer HEPES, pH 7.4. Reactions were started by the addition of UDPGA (5 mM) and were incubated for specified time at 37 °C. The reactions were stopped by the addition of 8.75 µL of 1 M HCl, followed by centrifugation at 13400 rpm for 10 min to pellet the denatured protein. The supernatant fractions were used for HPLC analysis. Control reactions omitting substrate were run with each assay. All incubations were performed in two repetitions.

[4] = target: T2, UGT 1A6 (Homo sapiens, UniProt P19224); test: Glucuronidation with recombinant UGT1A6; type: in vitro ADME; design: key: −: the lack of UGT activity; +: the significant UGT activity; conditions: 0.05 mM compound, 1 mg/mL UGT, 5 mM UDPGA
T2 construct: His tag; purchased Corning, NY, USA (through DIAG-MED, Poland); host or cells: baculovirus-insect cells (Supersomes); Results say Sf9 cells
T2 sequence (P19224 27-532): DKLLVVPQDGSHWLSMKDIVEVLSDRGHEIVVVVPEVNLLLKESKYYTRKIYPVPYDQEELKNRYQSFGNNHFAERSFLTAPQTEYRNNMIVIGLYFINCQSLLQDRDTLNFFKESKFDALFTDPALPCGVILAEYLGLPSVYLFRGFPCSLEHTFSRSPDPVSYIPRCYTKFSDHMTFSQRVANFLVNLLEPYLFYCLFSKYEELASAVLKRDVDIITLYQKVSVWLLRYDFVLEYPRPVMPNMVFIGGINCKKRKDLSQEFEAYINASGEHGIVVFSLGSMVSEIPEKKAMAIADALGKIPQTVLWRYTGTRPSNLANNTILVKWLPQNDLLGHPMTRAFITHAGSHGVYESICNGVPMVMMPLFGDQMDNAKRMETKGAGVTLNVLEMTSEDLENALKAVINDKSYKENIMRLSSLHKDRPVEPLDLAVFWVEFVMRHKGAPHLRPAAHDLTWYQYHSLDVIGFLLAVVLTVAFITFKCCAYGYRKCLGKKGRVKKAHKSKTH
Method: as §1

Row | SMILES | pKa ([1]; read-out: pKa 1) | pKa ([1]; read-out: pKa 2) | pKa ([1]; read-out: pKa 3) | conversion rate [2] [%] | substrate consumption [2] | Glucuronidation potency UGT 2B15 [3] | Glucuronidation potency UGT 1A6 [4]
1 | Cc1ccc([N+](=O)[O-])c2c(NCCCN(C)CCCNc3ccc4ncn5c6ccc(O)cc6c(=O)c3c45)c3ccccc3nc12 [C-2045] | 2.33 | 6.37 | 7.5 | 80 | not metabolized | − | 
2 | Cc1ccc([N+](=O)[O-])c2c(NCCCN(C)CCCNc3ccc4ncn5c6ccccc6c(=O)c3c45)c3ccccc3nc12 [C-2053] | 2.19 | 6.19 | 7.49 |  |  | − | −
3 | CN(CCCNc1c2ccccc2nc2cccc([N+](=O)[O-])c12)CCCNc1ccc2ncn3c4ccccc4c(=O)c1c23 [C-2028] | 2.22 | 6.01 | 7.41 | 100 | completely consumed | − | −
